Assay results taken from PubChem BioAssay AID743417 (Broad Institute, 2014).
Results filed as inconclusive are left out.

System: Clone20 osteoblast Shn3 3'UTR firefly luciferase, 24 h
Assay: Shn3 3'UTR reporter inhibitors, dose response, cell-based, Clone20 osteoblasts, luminescence, dry powder, set 2 (AID 743417)

SMILES | AC50 [µM]
O=C(c1cc(COc2c(F)cccc2F)on1)N1CCC(c2ccncc2)CC1 | 1.6
Cc1ccc(S(=O)(=O)c2ccc([N+](=O)[O-])cn2)cc1 | 3.85
Nc1nnc(SCC(=O)Nc2ccc(N3CCOCC3)cc2)s1 | 16.8
CCOC(=O)Cn1c(=O)c(-c2cc(Br)ccc2N)nc2ccccc21 | 0.758
COC(=O)C12OCC34C(CC5C(C)=C(O)C(=O)CC5(C)C3C(O)C1O)OC(=O)C(OC(=O)C=C(C)C)C24 (stereo not given) | < 0.26
COc1cccc(N2CCN(c3ncnc4c3[nH]c3ccc(F)cc34)CC2C)c1 (stereo not given) | 1.31
CC1=NN(c2nc3ccccc3[nH]2)C(=O)C1Cc1ccccc1 (stereo not given) | 4.11
Cc1cc(C(=O)CSc2nc(N)cc(=O)[nH]2)c(C)n1-c1cccc(F)c1 | 1.66
COc1ccc(NC(=O)COc2ccc(N(C)S(=O)(=O)c3ccc(Cl)cc3)cc2)cc1OC | 1.35
CC(C)(C)C(=O)Nc1cc(S(=O)(=O)N2CCCCC2)ccc1N1CCCCC1 | 23.1
FC(F)(F)c1nc(-c2cccs2)ncc1-c1nnnn1-c1ccc(Cl)cc1 | 2.1
COc1ccc(-c2cc(C(F)(F)F)nc(S(=O)(=O)CCCC(=O)Nc3cccnc3Cl)n2)cc1OC | 3.17
CN(c1ccccc1)S(=O)(=O)c1ccc(NC(=O)c2nc(S(C)(=O)=O)ncc2Cl)cc1 | 0.502
COc1ccc(-n2nnnc2S(=O)(=O)CC(=O)N2CCCCC2)cc1 | 5.44
COC(=O)C1=C(c2ccc(-c3ccccc3)c(F)c2)C[C@@H]2CC[C@H]1N2C(=O)NCC1CC1 | 4.32
Cc1cc(C)n2nc(SCc3cccc(S(=O)(=O)N(C)C)c3)nc2n1 | 14
COc1ccc(C(=O)Nc2nc3ccccc3s2)c(OC)c1 | 0.523
Cc1cc(C(=O)NNS(=O)(=O)c2cc(C(=O)O)ccc2Cl)c(C)n1-c1ccccc1 | 25.7
FC(F)(F)c1cccc(NC(=S)NC(c2ccccc2)c2ccccc2)c1 | 7.17
CCOc1ccc(/C=C/[N+](=O)[O-])c2ccccc12 | 4.27
CCCNc1nc2c(c(=O)n(C)c(=O)n2C)n1Cc1cccc(C)c1 | 1.91
Oc1ccc(-c2nc(-c3ccc(O)c(O)c3)cs2)cc1 | 5.07
COC(=O)c1ccc(N2CCN(S(=O)(=O)c3ccc(C)cc3)CC2)c([N+](=O)[O-])c1 | 3.88
CCCC(c1nnnn1Cc1ccc(OC)cc1)N1CCN(c2ccccc2)CC1 (stereo not given) | 31.9
O=C(Nc1ccc(N2CCOCC2)c(Cl)c1)c1ccc([N+](=O)[O-])o1 | 6.23
NS(=O)(=O)c1ccc(CCNCc2cc(Br)ccc2OCc2ccccc2F)cc1 | 4.65
CCn1c(N2CCN(S(=O)(=O)c3ccc(Cl)cc3)CC2)nc2ccccc21 | 9.14

SMILES | AC50 [µM]
Cc1ccc(C)c(S(=O)(=O)N2CCN(C(=O)C3CCN(c4ncnc5sc(C)c(C)c45)CC3)CC2)c1 | 2.82
CCOC(=O)N1CCC(NC(=O)C2CCCN(Cc3nc(-c4cccc(C)c4)oc3C)C2)CC1 (stereo not given) | 3.06
CC(C)C(=O)NC(c1ccc(Cl)cc1Cl)c1ccc2cccnc2c1O (stereo not given) | 0.691
Cc1ccc(NC(=O)C2CCN(S(=O)(=O)c3ccc4c(c3)NC(=O)C(C)S4)CC2)cc1C (stereo not given) | 2.61
Cc1ccc(S(=O)(=O)CC2CSc3nc4ccccc4n32)cc1 (stereo not given) | 0.347
CN(C)S(=O)(=O)c1ccc(Oc2ccc(S(=O)(=O)N(C)C)cc2)cc1 | 3.04
COc1cc2nc(N3CCN(c4cc(C)ccc4C)CC3)nc(N)c2cc1OC | 5.44
O=C(NCc1ccccc1)c1nc(S(=O)(=O)Cc2ccccc2)ncc1Cl | 1.19
CC(C)c1ccccc1-n1c(SCC(=O)N2CCc3ccccc3C2)nc2ccccc2c1=O | 2.99
O=[N+]([O-])c1cc(S(=O)(=O)C(F)(F)F)ccc1Sc1nc2ccccc2s1 | 2.45
Fc1ccc2[nH]c3c(N4CCSCC4)ncnc3c2c1 | 2.76
O=C1C(=C(c2ccccc2)N2CCOCC2)Cc2ccccc21 | 0.999
O=[N+]([O-])c1ccc(S(=O)(=O)c2ccccc2)nc1 | 1.74
O=C(/C(=C/c1ccc(Cl)cc1)c1nc2ccccc2[nH]1)c1cccs1 | 2.66
O=C(c1ccc(Cl)cc1)C1CCCN(Cc2cccc3ncccc23)C1 (stereo not given) | 4.52
CCN(CC)CCNC(=O)CSc1c2c(nc3cc(Cl)ccc13)CCCC2 | 14.9
CC[C@]12c3[nH]c4cc(CCC(=O)N(C)C)ccc4c3CCN1C(=O)[C@@H](CC(=O)NC/C=C(\C)CCC=C(C)C)C[C@@H]2C(=O)N1CCN(C(=O)c2ccco2)CC1 | 1.68
CC(Oc1cccc(Br)c1)C(=O)NNC(=O)c1ccccn1 (stereo not given) | 3.36
Cc1csc(NC(=O)Cc2nn(C)c(=O)c3ccccc23)n1 | 6.82
CCC(=O)N1c2ccc(S(=O)(=O)N3CCN(c4ccc([N+](=O)[O-])cc4)CC3)cc2CC1C (stereo not given) | 1.93
CC(C)C[C@H](N)c1nnc(S(=O)(=O)Cc2ccc(F)cc2)o1 | 9.02
O=C(/C=C/Nc1ccccc1Br)c1ccccn1 | 1.8
C=CCOc1nc2c(c(=O)n(C)c(=O)n2C)n1Cc1ccc(Cl)cc1Cl | 2.15
O=C(Nc1ccc(Cl)c(Cl)c1)c1cccc(S(=O)(=O)NCc2cccnc2)c1 | 5.39
CC(C)(C)n1nnnc1C(c1cccs1)N1CCCC2(CCCCC2)C1 (stereo not given) | 21.7
CCCC(=O)NC(c1ccc(Cl)cc1)c1ccc2cccnc2c1O (stereo not given) | 0.937
COc1cc(N2C(=O)C=CC2=O)ccc1N1C(=O)C=CC1=O | 2.32

SMILES | AC50 [µM]
COc1ccccc1CNc1nc(NCc2ccccc2SC)c2sccc2n1 | 4.48
C#CCn1c(=NC(=O)c2ccc(S(=O)(=O)N3CCc4ccccc4C3)cc2)sc2cc(S(N)(=O)=O)ccc21 | 1.29
Cc1ccc(NC(=O)C2=C(c3ccccc3)S(=O)(=O)CCS2(=O)=O)cc1 | 0.558
O=C(NNC(=O)c1cccnc1SCc1cccc([N+](=O)[O-])c1)c1ccccn1 | 1.9
OC1(c2ccc(OC(F)F)cc2)CSC(=Nc2cccnc2)N1C1CC1 (stereo not given) | 5.4
Oc1c(CN2CCCCC2)cc(COCc2ccccc2)c2cccnc12 | 0.537
CCCCNc1cc(C)nc(NCc2ccccc2)n1 | 0.719
C[C@H]1CN=C(N(C)C)N1CC1CCC(C(C)(C)C)CC1 (stereo not given in full) | 2.27
COc1ccc(-n2ncc(Cl)c(Cl)c2=O)cc1 | 3.36
N#Cc1cc(-c2ccccc2)[nH]c1-c1nccc2ccccc12 | 3.42
O=C(COC(=O)c1n[nH]c2ccccc12)Nc1ccc(S(=O)(=O)N2CCCC2)cc1 | 5.33
N=C1S/C(=C\c2ccc(-c3cccc(Cl)c3)o2)C(=O)N1c1nccs1 | 2.82
CC(C)NC(=O)C1CCN(C(=O)c2cc3sccc3n2Cc2ccc(F)cc2)CC1 | 5.05
CCOC(=O)c1ccc(NC(=O)Cn2ncc(Cl)c(Cl)c2=O)cc1 | 2.32
CC(=O)Nc1ccc(OCC(=O)Nc2ccc(Cl)c(S(=O)(=O)N3CCOCC3)c2)cc1 | 1.59
Cc1nc2nc(C)n(CCN3CCOCC3)c(=O)c2c(-c2cccc([N+](=O)[O-])c2)c1C(=O)CCCCCCCCCCN1CCC(c2ccccc2)(c2ccccc2)CC1 | 7.38
O=C(Nc1cc2c3c(c1)C1CCCC1CN3CC1CCCC21)c1ccc([N+](=O)[O-])cc1 (stereo not given) | 2.2
C[C@H]1C[C@@H](C)C(=O)[C@@H]([C@H](O)CC2CC(=O)NC(=O)C2)C1 | 0.307
CCCCCCN1C[C@@H](n2cc(-c3ccc(F)cc3)nn2)[C@H](O)C[C@@H]1c1ccc(Cl)cc1 | 12.5
CC(C)(C)NC(=O)NC(=O)CN1CCN(c2ccc(O)cc2)CC1 | 1.9
Cn1nccc1C(=O)NC1CCCc2c1cnn2-c1ccccc1F (stereo not given) | 0.37
CNc1ccccc1C(C)(C)c1cc(-c2cccc(OC)c2)no1 | 1.92
C[C@@H]1CN([C@@H](C)CO)C(=O)c2cc(NC(=O)Nc3ccc(F)cc3)ccc2O[C@@H]1CN(C)Cc1ccc(Oc2ccccc2)cc1 | 9.38
Cc1cc(C)nc(S/C=C/C(=O)c2ccccc2)n1 | 1.72
O=C(OCc1ccccc1)N(CCCCN(CCCNCc1ccccc1)C(=O)OCc1ccccc1)CCCNCc1ccccc1 | 5.36
COc1ccc(Nc2nc(N3CCCCC3)c3ccccc3n2)cc1 | 2.11
COc1ccc(-n2ncc3c(N4CCCCC4)ncnc32)cc1 | 2.87

SMILES | AC50 [µM]
CCCS(=O)(=O)Nc1ccc(Nc2c3ccccc3nc3ccccc23)c(OC)c1 | 3.39
O=C(Nc1nc(-c2ccccn2)cs1)c1ccc(Br)s1 | 1
CC(=O)OCCCNc1cc(Sc2nc3ccccc3s2)c2nonc2c1[N+](=O)[O-] | 4.7
Cc1ccc(C)c(N2CCN(C(=O)CCCCCn3c(=S)[nH]c4ccc(N5CCOCC5)cc4c3=O)CC2)c1 | 1.99
Nc1nc(N)c2cc(CNc3ccc(Cl)c(Cl)c3)ccc2n1 | 0.956
Cc1cc(C)c(S(=O)(=O)N2Cc3ccccc3-n3nncc3C2)c(C)c1 | 4.36
COC(=O)C1=C(c2ccc(F)cc2OCc2ccccc2)C[C@@H]2CC[C@H]1N2C(=O)NC1Cc2ccccc2C1 | 8
O=C(Nc1cc(F)ccc1F)N1CCN(c2ccnc3cc(Cl)ccc23)CC1 | 22.8
Cc1nc2c(OCc3ccc(Cl)cc3Cl)cccn2c1N(C)CC1CC1 | 10
O=C(c1cc2nc(-c3ccc(F)cc3)cc(C(F)(F)F)n2n1)N1CCCCC1c1cccnc1 (stereo not given) | 2.37
CCc1ccc(CNC(=O)c2cc3c(C)nc4ccccc4c3o2)cc1 | 2.02
C#CC(=O)N(c1cc(OC)ccc1OC)C(C(=O)NC1CCCC1)c1cccs1 (stereo not given) | 4.57
COc1cc(NC(=O)c2cc3c(Cl)nc4ccccc4c3s2)cc(OC)c1OC | 24.4
OC(c1cc(-c2cccc(Cl)c2)nc2ccccc12)C1CCCCN1 (stereo not given) | 10.8
O=C1C=CC(O)(c2cc(=O)c3c(O)cc(O)cc3o2)C=C1 | 5.12
COC(=O)[C@]1(C)CCC[C@@]2(C)C3CC[C@@]4(C)C[C@]3(CCC21)CC(=O)N4Cc1ccc(OC)cc1 (stereo not given in full) | 8.16
COc1cc(NS(=O)(=O)c2ccc(C)cc2C)cc(OC)c1OC | 4.95
COc1ccc(CNCCC(c2ccc(OC(C)C)cc2)c2ccccc2OC)cc1 (stereo not given) | 3.86
COc1cccc(CN(C)C(=O)c2cc(COc3ccc4ncccc4c3)on2)c1 | 1.49
CN1CCN(S(=O)(=O)c2ccc(N(C)Cc3ccc(C(F)(F)F)cc3)c([N+](=O)[O-])c2)CC1 | 6.3
CC(C)(C)C(=O)Nc1cc2nn(-c3ccccc3)nc2cc1Cl | 5.16
Cc1nnc(NC(=O)c2nc(S(=O)(=O)Cc3ccccc3C)ncc2Cl)s1 | 0.812
Oc1ccc(CCNc2ncnc3ccc(Cl)cc23)cc1 | 0.551
COc1ccc(CC2(CO)CCN(CC3=Cc4cc(Cl)ccc4OC3)CC2)cc1 | 1.33
